Experimental data as given in patent US11236129B2, “IL-17A binding peptides and medical uses thereof” (Dompe' Farmaceutici S.P.A., priority 2018, dated 2022).
Read-outs that look alike come from different tables or passages of the source. Residues, ends and D or L forms follow the SMILES beside them.

What was measured:
[1] = molecular target: IL-17RA/IL17RC dimerization induced by IL-17A (Homo sapiens, UniProt Q16552); test: IL-17RA/IL17RC dimerization assay in response to IL-17A (PathHunter Cytokine Receptor Assay); type: cell-based; conditions: IL-17A at EC80; read-out: IC50 in IL-17RA/IL7RC dimerization assay
Method in brief: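 Receptor dimerization was read as chemiluminescence from complemented β-galactosidase after IL-17A at EC80 concentration for 6–16 h at 37 °C. Peptides were added 60 min before agonist, at 37 °C or room temperature, with 1% vehicle. Percent inhibition used the EC80-stimulated and vehicle wells as references.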

[2] = type: physicochemical; conditions: pH 7.8
Procedure: Each lyophilized peptide was weighed in an amber vial. A calculated volume of phosphate buffered solution at pH 7.8 was added in order to directly obtain 10 mM Stock Solutions. The recovered suspensions were stirred for 30 minutes by orbital shaker incubator at 37° C. Subsequent dilutions were performed to obtain the more diluted stock solutions for the less soluble compounds.
In order to evaluate the stability and the solubility, all the stock solutions were stored at 25° C. The title was evaluated by UHPLC-MS analysis in comparison with the standard solutions, at 3 time points: T0, 3 days, 1 week.
The chromatographic profile was evaluated for the quantitative assay while the MS spectra were detected as support in the stability studies.
Each peptide was weighed and directly diluted at 100 μM with the phosphate buffer at pH 7.8. The solutions were stirred for 5 minutes by vortex and heated at 37° C. for 20 minutes. The obtained standard solution was stored at 25° C. in the dark under controlled temperature.
A portion of the stock solutions was collected in an amber vial and diluted to 100 μM by phosphate buffer at pH 7.8 (dilution factor, 1:100).
Reversed-phase UHPLC was performed operating at a flow rate of 0.3 ml/min with a Luna Omega Polar C18 column ([…] 1.6 μm, 2.1×100 mm). Solvent A was 0.5% Formic Acid in water and solvent B was 0.5% Formic Acid in acetonitrile. First, samples were loaded onto the column and washed isocratically at 10% B for 3 min. Then, a gradient of 10-95% B was run over 22 min, held at 95% for 2 min, and then decreased to 10% over 1 min and held, for the pressure stabilization, for 5 min. UV Absorption was monitored by DAD (220-400 nm). ESI-MS ion trap was used for the monitoring of TIC.

[3] = Isoelectric point, log D and log P (SiriusT3); type: physicochemical; conditions: for IP (isoelectric point): 25±1° C., 0.15 M KCl
Procedure: The main physicochemical properties (Isoelectric point (IP), log D (7.4) and log P) of the peptides of Table 8 below were determined by using the SiriusT3 apparatus (Sirius Analytical Instruments Ltd., East Sussex, UK) equipped with an Ag/AgCl double junction reference pH electrode, a Sirius D-PAS spectrometer and a turbidity sensing device. […] An overhead stirrer was used and a temperature probe (Peltier controller) monitored the temperature during the course of the titration. The titration experiments were conducted in 0.15 M KCl Ionic Strength Adjusted solution (ISA water) under a nitrogen atmosphere at a temperature of 25±1° C. All tests were performed using standardized 0.5 M KOH and 0.5 M HCl as titration reagents, for the partition coefficient tests a saturated Octanol in ISA water (5% of ISA water) was used as partition solvent. The pKas were determined by potentiometric method by pH-metric titration. The powder (around 0.5 mg) was dissolved in 1.5 ml of ISA water and the titration was performed in triplicate in the pH range 2.0−12.0.

[4] = octanol/ISA water, read-out: logP
[5] = pH 7.4, pH 7.4, octanol/ISA water, read-out: Log D (7.4)

Sequence of IL-17RA/IL17RC dimerization induced by IL-17A (Q16552 24-155): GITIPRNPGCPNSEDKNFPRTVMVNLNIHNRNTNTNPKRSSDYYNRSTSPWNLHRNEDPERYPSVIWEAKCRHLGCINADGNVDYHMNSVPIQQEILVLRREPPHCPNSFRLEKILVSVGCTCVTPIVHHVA

## CC[C@H](C)[C@H](NC(C)=O)C(=O)N[C@@H](Cc1c[nH]cn1)C(=O)N[C@H](C(=O)N[C@H](C(=O)N[C@H](C(=O)N1CCC[C@H]1C(=O)N[C@@H](C)C(=O)N[C@@H](CC(=O)O)C(=O)N[C@@H](CC(C)C)C(=O)N[C@@H](Cc1c[nH]c2ccccc12)C(=O)N[C@@H](CC(=O)O)C(=O)N[C@@H](Cc1c[nH]c2ccccc12)C(=O)N[C@H](C(=O)N[C@@H](CCC(=O)O)C(=O)N[C@@H](CCC(=O)O)C(N)=O)C(C)C)[C@@H](C)CC)[C@@H](C)O)C(C)C [SEQ ID NO: 15] (Ac-IHVTIPADLWDWVEE-NH2)
[1]
  IC50: < 0.4 µM
[2]
  solubility: ≥ 50 µM
[3]
  IP (isoelectric point): 3.51
[3]; logP
  logP: 1.66
[3]; pH 7.4, Log D (7.4)
  logD: 1.88

## CC[C@H](C)[C@H](NC(=O)[C@H](Cc1c[nH]c2ccccc12)NC(=O)[C@H](CCC(=O)O)NC(=O)[C@H](Cc1ccc(O)cc1)NC(=O)[C@H](CC(C)C)NC(=O)[C@H](CC(=O)O)NC(=O)[C@H](C)NC(=O)[C@@H]1CCCN1C(=O)[C@@H](NC(=O)[C@@H](NC(=O)[C@@H](NC(=O)[C@H](CCSC)NC(=O)[C@@H](NC(C)=O)C(C)C)C(C)C)[C@@H](C)O)[C@@H](C)CC)C(=O)N[C@@H](CC(N)=O)C(=O)N[C@@H](CCCCN)C(N)=O [SEQ ID NO: 16] (Ac-VMVTIPADLYEWINK-NH2)
[1]
  IC50: < 0.4 µM
[2]
  solubility: > 10000 µM
[3]
  IP (isoelectric point): 5.19
[3]; [4]
  logP: 0.13
[3]; [5]
  logD: 0.24

## CC[C@H](C)[C@H](NC(=O)[C@H](Cc1c[nH]c2ccccc12)NC(=O)[C@H](CCC(=O)O)NC(=O)[C@H](Cc1ccc(O)cc1)NC(=O)[C@H](CC(C)C)NC(=O)[C@H](CC(=O)O)NC(=O)[C@H](C)NC(=O)[C@@H]1CCCN1C(=O)[C@@H](NC(=O)[C@@H](NC(=O)[C@@H](NC(=O)[C@H](CCSC)NC(=O)[C@@H](NC(C)=O)C(C)C)C(C)C)[C@@H](C)O)[C@@H](C)CC)C(=O)N[C@@H](CCCNC(=N)N)C(=O)N[C@@H](CCCNC(=N)N)C(N)=O [SEQ ID NO: 17] (Ac-VMVTIPADLYEWIRR-NH2)
[1]
  IC50: < 0.4 µM
[2]
  solubility: > 10000 µM
[3]
  IP (isoelectric point): 8.05
[3]; [4]
  logP: -0.44
[3]; [5]
  logD: -3.68

## CC[C@H](C)[C@H](NC(=O)[C@H](Cc1c[nH]c2ccccc12)NC(=O)[C@H](CCC(=O)O)NC(=O)[C@H](Cc1ccc(O)cc1)NC(=O)[C@H](CC(C)C)NC(=O)[C@H](CC(=O)O)NC(=O)[C@H](C)NC(=O)[C@@H]1CCCN1C(=O)[C@@H](NC(=O)[C@@H](NC(=O)[C@@H](NC(=O)[C@H](CCSC)NC(=O)[C@@H](NC(C)=O)C(C)C)C(C)C)[C@@H](C)O)[C@@H](C)CC)C(=O)N[C@@H](CCC(=O)O)C(=O)N[C@@H](CCC(=O)O)C(=O)N[C@@H](CCCNC(=N)N)C(=O)N[C@@H](CCCNC(=N)N)C(=O)N[C@@H](CCCNC(=N)N)C(=O)N[C@@H](CCCNC(=N)N)C(=O)N[C@@H](CCCNC(=N)N)C(=O)N[C@@H](CCCNC(=N)N)C(N)=O [SEQ ID NO: 19] (Ac-VMVTIPADLYEWIEERRRRRR-NH2)
[1]
  IC50: < 1 µM
[2]
  solubility: ≥ 100 µM
[3]
  IP (isoelectric point): 12.49
[3]; [5]
  logD: -3.94

## CC[C@H](C)[C@H](NC(=O)[C@H](Cc1c[nH]c2ccccc12)NC(=O)[C@H](CCC(=O)O)NC(=O)[C@H](Cc1ccc(O)cc1)NC(=O)[C@H](CC(C)C)NC(=O)[C@H](CC(=O)O)NC(=O)[C@H](C)NC(=O)[C@@H]1CCCN1C(=O)[C@@H](NC(=O)[C@@H](NC(=O)[C@@H](NC(=O)[C@H](CCSC)NC(=O)[C@@H](NC(C)=O)C(C)C)C(C)C)[C@@H](C)O)[C@@H](C)CC)C(=O)N[C@@H](CCC(=O)O)C(=O)N[C@@H](CCC(=O)O)C(=O)N[C@@H](CCCNC(=N)N)C(=O)N[C@@H](CCCNC(=N)N)C(=O)N[C@@H](CCCNC(=N)N)C(N)=O [SEQ ID NO: 20] (Ac-VMVTIPADLYEWIEERRR-NH2)
[1]
  IC50: < 1 µM
[2]
  solubility: ≥ 100 µM
[3]
  IP (isoelectric point): 11.29
[3]; [5]
  logD: -3.69

## CC[C@H](C)[C@H](NC(=O)[C@H](Cc1c[nH]c2ccccc12)NC(=O)[C@H](CCC(=O)O)NC(=O)[C@H](Cc1ccc(O)cc1)NC(=O)[C@H](CC(C)C)NC(=O)[C@H](CC(=O)O)NC(=O)[C@H](C)NC(=O)[C@@H]1CCCN1C(=O)[C@@H](NC(=O)[C@@H](NC(=O)[C@@H](NC(=O)[C@H](CCSC)NC(=O)[C@@H](NC(C)=O)C(C)C)C(C)C)[C@@H](C)O)[C@@H](C)CC)C(=O)N[C@@H](CCC(=O)O)C(=O)N[C@@H](CCC(=O)O)C(=O)N[C@@H](C)C(=O)N[C@@H](CCCNC(=N)N)C(=O)N[C@@H](CCCCN)C(=O)N[C@@H](CCCCN)C(=O)N[C@@H](C)C(=O)N[C@@H](C)C(=O)N[C@@H](CCCCN)C(=O)N[C@@H](C)C(N)=O [SEQ ID NO: 21] (Ac-VMVTIPADLYEWIEEARKKAAKA-NH2)
[1]
  IC50: < 1 µM
[2]
  solubility: > 10000 µM
[3]
  IP (isoelectric point): 10.6
[3]; [4]
  logP: -4.99
[3]; [5]
  logD: -0.55

## CC[C@H](C)[C@H](NC(=O)[C@H](Cc1c[nH]c2ccccc12)NC(=O)[C@H](CCC(=O)O)NC(=O)[C@H](Cc1ccc(O)cc1)NC(=O)[C@H](CC(C)C)NC(=O)[C@H](CC(=O)O)NC(=O)[C@H](C)NC(=O)[C@@H]1CCCN1C(=O)[C@@H](NC(=O)[C@@H](NC(=O)[C@@H](NC(=O)[C@H](CCSC)NC(=O)[C@@H](NC(C)=O)C(C)C)C(C)C)[C@@H](C)O)[C@@H](C)CC)C(=O)N[C@@H](CCC(=O)O)C(=O)N[C@@H](CCC(=O)O)C(=O)NCC(=O)NCC(=O)N[C@H](C(=O)N[C@@H](Cc1c[nH]c2ccccc12)C(=O)N[C@@H](Cc1c[nH]c2ccccc12)C(=O)N[C@H](C(=O)N[C@@H](CCC(=O)O)C(=O)N[C@@H](Cc1c[nH]c2ccccc12)C(=O)N[C@@H](CO)C(=O)N[C@@H](CCC(N)=O)C(N)=O)[C@@H](C)O)[C@@H](C)O [SEQ ID NO: 22] (Ac-VMVTIPADLYEWIEEGGTWWTEWSQ-NH2)
[1]
  IC50: < 1 µM
[2]
  solubility: > 10000 µM
[3]
  IP (isoelectric point): 4.26
[3]; [4]
  logP: 0.4
[3]; [5]
  logD: -3.18

## CC[C@H](C)[C@H](NC(=O)[C@H](Cc1c[nH]c2ccccc12)NC(=O)[C@H](CCC(=O)O)NC(=O)[C@H](Cc1ccc(O)cc1)NC(=O)[C@H](CC(C)C)NC(=O)[C@H](CC(=O)O)NC(=O)[C@H](C)NC(=O)[C@@H]1CCCN1C(=O)[C@@H](NC(=O)[C@@H](NC(=O)[C@@H](NC(=O)[C@H](CCSC)NC(=O)[C@@H](NC(C)=O)C(C)C)C(C)C)[C@@H](C)O)[C@@H](C)CC)C(=O)N[C@@H](CCC(=O)O)C(=O)N[C@@H](CCC(=O)O)C(=O)N[C@H](C(=O)N[C@@H](Cc1c[nH]c2ccccc12)C(=O)N[C@@H](Cc1c[nH]c2ccccc12)C(=O)N[C@@H](CCC(=O)O)C(=O)N[C@H](C(=O)N[C@@H](Cc1c[nH]c2ccccc12)C(=O)N[C@@H](Cc1c[nH]c2ccccc12)C(N)=O)[C@@H](C)O)[C@@H](C)O [SEQ ID NO: 23] (Ac-VMVTIPADLYEWIEETWWETWW-NH2)
[1]
  IC50: < 1 µM
[2]
  solubility: ≥ 50 µM
[3]
  IP (isoelectric point): 4.26
[3]; [4]
  logP: 1.01
[3]; [5]
  logD: -2.24

## CC[C@H](C)[C@H](NC(=O)[C@H](Cc1c[nH]c2ccccc12)NC(=O)[C@H](CCC(=O)O)NC(=O)[C@H](Cc1ccc(O)cc1)NC(=O)[C@H](CC(C)C)NC(=O)[C@H](CC(=O)O)NC(=O)[C@H](C)NC(=O)[C@@H]1CCCN1C(=O)[C@@H](NC(=O)[C@@H](NC(=O)[C@@H](NC(=O)[C@H](CCSC)NC(=O)[C@@H](NC(C)=O)C(C)C)C(C)C)[C@@H](C)O)[C@@H](C)CC)C(=O)N[C@@H](CCC(=O)O)C(=O)N[C@@H](CCC(=O)O)C(=O)N[C@H](C(=O)N1CCC[C@H]1C(=O)NCC(=O)N[C@@H](Cc1c[nH]c2ccccc12)C(=O)NCC(N)=O)C(C)C [SEQ ID NO: 24] (Ac-VMVTIPADLYEWIEEVPGWG-NH2)
[1]
  IC50: < 1 µM
[2]
  solubility: < 50 µM
[3]
  IP (isoelectric point): 5.14
[3]; [4]
  logP: 2.45
[3]; [5]
  logD: 2.15
